Data on 91 molecules can be found in a melting point compilation (Tetko et al.; mined from patent text by program, amines drawn as free bases though some values may be those of a salt).

Where only a bound is given, the exact number is not on record here.

With `C[C@@H]1NC(=O)[C@H]2Cc3c([nH]c4ccccc34)[C@@H](c3ccc4occc4c3)N2C1=O`, the melting point (usually the temperature, or range, at which the solid turns liquid) was 150 to 151 °C. The figure for `Cc1n[nH]c(-c2cc(Cl)ccc2N)n1` is 190 to 195 °C.

For the molecule `CC(C)(O)Cn1c(N)nc2c(N)nc3c(c21)CCCC3`, the melting point was more than 270 °C. Next, `O=C1NC(O)c2cccn2-c2sccc21` (stereo unspecified): 166 °C; `CC12CCCC1C1=CCc3cc(O)ccc3C1CC2` (stereo unspecified): 130 to 134 °C.

In turn, `COC(=O)c1cc2c3ccccc3n(S(=O)(=O)c3ccccc3)c2s1` gave a melting point of 195 to 197 °C. On to `CC1CC(NC(=O)C(F)(F)F)=NN1c1ccc(Cl)cc1` (stereo unspecified), for which the melting point lay within 170 to 172 °C. Next, `O=C(NC(c1ccccc1)C(O)C(=O)OCc1ccccc1)c1ccccc1` (stereo unspecified): 129 to 131 °C; `CC(=Cc1ccccc1)c1cc2c(cc1Cl)C(C)(C)CCC2(C)C`: 114 °C. Molecule `COC(=O)C1C(=O)Nc2ccc(Cl)cc2CC1c1ccc(OC)cc1` (stereo unspecified) displayed a melting point of 189 to 190 °C. For the molecule `O=c1oc(Nc2ccc(Oc3ccccc3)cc2)nc2sccc12`, the melting point was 206 to 210 °C. The figure for `COc1ccc(C)cc1NC(=O)Nc1ccc(N2CCN(C(=O)Nc3c(CO)cccc3C(F)(F)F)CC2)cc1` is 139 to 140 °C; for `CC1(C)CC(=O)c2c(OC3CCC3)sc(-c3cc[nH]n3)c2C1` it is 202 to 204 °C; for `C=CCN1C(=O)C2CC2(c2ccc(N)cc2)C1=O` (stereo unspecified) it is 104 to 106 °C. For the molecule `O=C(Nc1ncco1)C1c2ccccc2Oc2ccccc21`, the melting point fell in the range of 232 to 235 °C.

Molecule `O=C(O)c1cc(-c2ccc3occc3c2)nn(Cc2ccc(F)cc2)c1=O` displayed a melting point of 207 to 210 °C. Next, `Cn1nc(CNS(C)(=O)=O)nc1NCCCOc1cccc(CN2CCCCC2)c1`: 117 to 118 °C; `CCCC=Cc1c(C(C)C)nc(C(C)C)c(C(=O)OCC)c1-c1ccc(CC)cc1`: 67 to 68 °C. The figure for `N#CCc1cc([N+](=O)[O-])c(F)cc1Cl` is 67 to 68 °C.

For `CC12CCC(C1)C1(C)Oc3ccc(C(=O)c4ccc(C=CC(=O)O)cc4)cc3C21C` (stereo unspecified), the melting point is 242 to 243 °C.

On to `CCCCCCCCCCCCCCCCCCOc1cc(OCCCCC(=O)OC)cc(N(CC(=O)OCc2ccccc2)CC(=O)OCc2ccccc2)c1`, for which the melting point is 48 to 50 °C. The figure for `COc1nc(-c2ccccc2)c2ccsc2n1` is 160 to 162 °C; for `O=c1[nH]c2cscc2c(=O)c2cscc12` it is 267 to 270 °C; for `CC(=NO)c1c(C#N)nn(-c2c(Cl)cc(C(F)(F)F)cc2Cl)c1N` it is 105 to 110 °C. Next, `Clc1ncnc2c1ncn2C1CCCCO1` (stereo unspecified): 70 to 71 °C; `CNC(=O)OCCN1C(=O)c2ccccc2C1=O`: 142 to 145 °C. `COC(=O)CN(C1c2cc(Cl)ccc2OC(C)(C)C1O)S(C)(=O)=O` (stereo unspecified) registered a melting point of 148 to 150 °C. The figure for `Oc1ccc2c(c1)CCN(Cc1ccc3c(c1)OCO3)C2` is 169 to 172 °C; for `COC(=O)c1cccc(OC)c1I` it is 58 to 61 °C. The figure for `COc1cc(C2CCN(C)CC2)ccc1Nc1ncc2ccc(-c3ccccc3OC)n2n1` is 71 to 84 °C; for `CCOC(=O)c1ccc(C2=CCCCC2)cc1` it is 66 °C; for `OC(CCN1CCN(c2ccccc2)CC1)COc1cccc(C(F)(F)F)c1` (stereo unspecified) it is 73 to 74 °C. `O=C1C(=O)N(Cc2ccc(C(F)(F)F)o2)c2cccc(Cl)c21` had a melting point of 148 to 150 °C.

On to `CN(C)C=Nc1nc(=O)n(-c2ccsc2)cc1F`, for which the melting point was in the range of 211 to 213 °C. Next, `O=c1c(-c2ccccc2)c[nH]nc1-c1ccccc1`: 328 to 332 °C; `C=CCOc1c(Cl)cc(C2=NNC(=O)CC2)cc1Cl`: 137 °C.

For `Cc1c(Cl)ccc(C(=O)O)c1F`, the melting point came to 198 °C. `CN1C(=O)C(c2ccccc2)=C(c2cn(C)c3ccccc23)C1=O` displayed a melting point of 242 to 246 °C. As to `Cc1ccc(S(=O)(=O)NCCN(CCNS(=O)(=O)c2ccc(C)cc2)Cc2ccccc2)cc1`, the melting point was in the range of 87 to 91 °C.

Consider `CS(=O)(=O)NC1CCC(NC(=O)Nc2ccc(C(F)(F)F)cc2)CC1` (stereo unspecified), for which the melting point lay in the range of 237 to 239 °C. With `CC(C)(C)OC(=O)Nc1ccccc1NC(=O)c1ccc(C(=O)O)cc1`, the melting point lay within 190 to 192 °C. Next, `Cc1ccc(SCCC(=O)c2cc(O)c(O)c([N+](=O)[O-])c2)cc1`: 160 to 161 °C; `CCOC(=O)C1C(=O)NCC1CCc1ccc(C(=O)OCC(C)C)cc1` (stereo unspecified): 98 to 104 °C; `Cc1ccc(-c2ccc(CN3CCN(c4ccccc4)CC3)o2)cc1C`: 110 °C. The figure for `CS(=O)(=O)OCCC1c2ccccc2COc2ccccc21` (stereo unspecified) is 64 to 66 °C; for `CC(O)CC1NCc2ccsc2-n2cccc21` (stereo unspecified) it is 130 °C; for `O=C(Nc1ccccc1)c1cc(Oc2ccc3c(c2)CCN3C(=O)Nc2cccc(C(F)(F)F)c2)ncn1` it is 227 to 229 °C.

`O=c1c2ccccc2nc(CCl)n1-c1cccc(Cl)c1`: the melting point is 202 to 205 °C.

As to `O=C(O)C(c1ccc2c(c1)OCO2)n1nc(C2CC2)cc(-c2ccccc2)c1=O` (stereo unspecified), the melting point turned out to be 176 °C. Next, `O=c1[nH]c2sc(Cl)c(C3CC3)c2[nH]c1=O`: more than 260 °C; `Cc1ncccc1OCC1(c2onc(-c3ccc(O)cc3)c2-c2ccccc2)CC1`: 194 to 195 °C. Next, `COC=C(C(=O)OC)c1ccccc1CCc1ccccc1`: 52 to 54 °C; `Cc1cc(N(C)C)ccc1C1(N(c2ccc(N(C)C)cc2)c2ccc(N(C)C)cc2)OC(=O)c2ccccc21` (stereo unspecified): 97 to 113 °C.

`Clc1cc(Cl)cc(-c2n[nH]cc2I)c1` came in with a melting point of 170 °C. The figure for `CC(=O)c1ccc(OCc2cncnc2)cc1OC(CCC(=O)O)c1ccccc1C` (racemic) is 142 to 144 °C; for `CC(=NNc1ccccc1)c1ccc(O)cc1O` it is 159 °C.

`CCCCOc1csc(C)c1C(=O)O`: the melting point fell in the range of 66 to 68 °C.

`CCOC(=O)C(=CNc1ccc(F)c(N2CCN(C(C)=O)CC2)n1)C(=O)OCC`: the melting point lay in the range of 164 to 165 °C. Next, `FC(F)Oc1cccc(C=C2c3ccccc3CCc3ccccc32)c1`: 91.3 °C. The figure for `CCCc1cc(O)nc(SCC(N)=O)n1` is 200 to 203 °C; for `CCc1cc(CC)c(-c2c(OCCl)c(C)nn(C)c2=O)c(CC)c1` it is 103 to 104 °C; for `C[C@H]1[C@H](N)CN1c1cc2c(cc1F)c(=O)c(C(=O)O)cn2C(C)(C)C` (relative stereo) it is 225 to 227 °C. Next, `CSc1nnc(-c2ccc(Cl)cc2)o1`: 121 to 123 °C; `Fc1cc2nn(CCC#Cc3ccccn3)nc2cc1F`: 131 to 132 °C. On to `Cc1c(NC(=O)c2ccc(OC[C@@H]3CCCO3)cc2)ccc2cc(CN[C@H](C)C(C)(C)C)cnc12`, for which the melting point was 140 to 141 °C. Next, `CC(C)(O)CCCCCc1cccc(C=Cc2ccc(CO)c(CO)c2)c1`: 93 to 95 °C; `CC(C)C[C@@H](C=O)NC(=O)[C@H](Cc1c[nH]cn1)NC(=O)[C@H](Cc1ccc2ccccc2c1)NC(=O)OCc1ccccc1`: 110 to 112 °C. Next, `CCC(Cl)CCC(=O)c1cc(OC)c(OC)cc1F` (stereo unspecified): 81 to 82 °C; `CC(C)(C)C(=O)Cn1ncc(-c2ccc(S(C)(=O)=O)cc2)c(-c2ccc(F)cc2)c1=O`: 168 to 170 °C. Next, `COC(=O)C(=O)Nc1cccc(C(=O)Nc2nnn[nH]2)c1`: 253 to 254 °C; `O=C(O)CCCC(=O)NCC1(S)CCCCC1`: 73 to 74 °C; `CC1CC2CC(C)(CN2)C1(C)C(=O)C=CCO` (stereo unspecified): 72 to 75 °C. Molecule `CN1C(=O)CC(=O)N(C)c2ccccc21` displayed a melting point of 240 to 242 °C.

Molecule `C=C(c1ccc(NC(=O)OC(C)(C)C)c(C)c1)C(F)(F)F` had a melting point of 86 to 88 °C.

As for `COc1cccc2c1CC(N=[N+]=[N-])C(O)C2` (stereo unspecified), the melting point was in the range of 83 to 84 °C. Next, `Clc1cc(Nc2ccccc2)c2nc[nH]c2n1`: more than 300 °C; `O=c1c2ccccc2n(CCCCl)c2ccc(Cl)cc12`: 141 °C; `CSC(=CC(=O)c1ccccc1)CC(=O)c1ccccc1`: 106 to 108 °C. The figure for `CCOC(=O)c1c(N2CCN(C(=O)c3cccs3)CC2)c2cccnc2n(Cc2ccc(F)cc2)c1=O` is 196 °C; for `C=C(C)C(=O)N1c2ccc(OC)cc2CC1C(=O)O` (stereo unspecified) it is 108 to 111 °C; for `O=C(CN1CCOCC1)Nc1ccc2c(c1)Cc1cn[nH]c1-2` it is 141 to 148 °C.

Regarding `CCCCCC(CC(=O)Nc1cc(C(N)=O)ccc1C(C)(C)C)c1cc(OC)c(OC)cc1OC` (stereo unspecified), the melting point is 166 to 167 °C. Next, `CCCCNCc1nc(-c2ccc3c(c2)Nc2ccccc2S3)cs1`: 139 to 141 °C; `COc1ccc(C2CCN(C(N)=O)CC2)cc1CC1CCCC1`: 168 to 169 °C. Next, `O=C1CCC(N2Cc3c(OCc4ccc(CN5CCOCC5)c(F)c4)cccc3C2=O)C(=O)N1` (stereo unspecified): 263 to 265 °C; `CCOC(=O)n1c(SC(F)(F)C(F)F)nc(-c2ccccc2)c1-c1ccccc1`: 126 to 127 °C; `Cn1cc2c(O)cc(-c3ccc(Cl)cc3)nc2n1`: 302 to 305 °C. With `COc1ccc2c(c1)CCC1C2=CCC2(C)C1CCC21OCCO1` (stereo unspecified), the melting point is 146 to 149 °C. The figure for `C=CCc1c(OCOC)cc(OCOC)c(C(=O)C=Cc2ccc(OCOC)cc2)c1O` is 68 to 69 °C; for `CCCn1c(-n2nc(-c3c(-c4ccccc4)nn4ccccc34)ccc2=O)cc(=O)n(CCC)c1=O` it is 155 °C; for `Cc1cc(Nc2nccc(-c3sc(CO)nc3C)n2)ccc1N1CCOCC1` it is 93 to 94 °C.
